Measured values as given in patent US9783859B2, “Method of screening and quantifying various enzymatic activities using artificial genetic circuits” (KOREA RESEARCH INSTITUTE OF BIOSCIENCE AND BIOTECHNOLOGY, priority 2009, dated 2017).
Where two headings read alike, the source gives them in different places.

Key:
[1] = test system: artificial genetic circuit pGESS-EGFP (I) (dmpR); assay type: cell-based, E. coli DH5α; settings: 0.1-1000 μM tested, overnight at 30° C., LB medium
Method: The signals of the artificial genetic circuit for phenolic compounds were quantitatively analyzed. Specifically, a single colony of E. coli DH5α containing pGESS-EGFP (I) was inoculated into LB liquid medium containing 50 μg/ml of ampicillin and was cultured with shaking overnight at 37° C. The culture was inoculated into LB medium containing 50 μg/ml of ampicillin to a concentration of 1% (v/v), and 0.1-1000 μM of each of phenol, o-chlorophenol, m-chlorophenol, o-nitrophenol, catechol and resorcinol was added thereto and cultured with shaking overnight at 30° C. The cells were lysed, and the supernatant was analyzed by a fluorescence spectrometer (Varian, Australia), thereby measuring the fluorescence of GFP at 510 nm.

[2] = test system: phenol-sensing artificial genetic circuit pGESS-EGFP(I) (dmpR); settings: solid medium, 30° C. 36 hours, fluorescence microscope
Method: In order to quantitatively analyze the function of the artificial genetic circuit (constructed in Example 1) to sense phenol, a single colony of recombinant E. coli BL21 containing pGESS-EGFP(I) was inoculated into LB liquid medium containing 50 μg/ml of ampicillin and was cultured with shaking overnight at 37° C.

[3] = test system: genetic circuit pGESS-EGFP (II)
Method: In the present invention, in order to increase the ability of the genetic circuit to sense phenolic compounds, the reaction of the genetic circuit was performed using the optimal medium and carbon source selected in Example 5, and the cell growth step and the step of activating (analyzing) the genetic circuit were separated from each other, thereby attempting the optimization of the sense system. Specifically, the bacterial cells were made healthy using LB medium during growth, and the cells were recovered and the activity of the genetic circuit therein was analyzed in the M9 medium containing acetate as a carbon source.
Specifically, a colony introduced with the genetic circuit was inoculated into LB medium and was cultured with shaking overnight at 37° C., and next day, the culture was inoculated into LB medium at a concentration of 1% (v/v) and was cultured with shaking at 37° C. When the cell growth (OD600/ml) reached about 2.5, the cultured cells were recovered and subjected to activation of the genetic circuit. For activation of the genetic circuit, the recovered bacterial cells were washed once with M9 medium, after they were suspended in M9 (acetate) media containing various concentrations of phenols and were cultured with shaking at 30° C. for 16 hours. Each medium was supplemented with 50 μg/ml of ampicillin as a selective marker. The intensity of fluorescence in cells induced by each concentration of phenol was measured using FACSAria system (Becton Dickinson, US). As a detector, an FSC, SSC, FL1-H (excitation=488 nm, emission=530/30 nm) detector was set, and data obtained by 50,000 sample cells were analyzed using FACSDiVa (Becton Dickinson, USA) (see FIG. 19 C).

[4] = test system: phenol-sensing artificial genetic circuit pGESS-EGFP(I) (dmpR)
Method: The dependence of sensitivity of the artificial genetic circuit on the concentration of the inducer phenol was confirmed using a fluorescence spectrometer. For this purpose, a single colony of recombinant E. coli containing pGESS-EGFP(I) was inoculated into LB liquid medium supplemented with 50 μg/ml of ampicillin and was cultured with shaking overnight at 37° C. The above pre-culture was inoculated into LB liquid medium containing 50 μg/ml of ampicillin and various concentrations (0.1-1000 μM) of phenol to a concentration of 1% (v/v) and was cultured with shaking at 30° C. for 20 hours. To analyze the intensity of fluorescence, the cells were disrupted, and the intensity of fluorescence in the supernatant was analyzed using a fluorescence spectrometer.

[5] = test system: genetic circuit pGESS-Km(II); settings: phenol 1-1000 μM
Method: (§1) Next, the genetic circuits (pGESS-Cm(II), pGESS-Tc(II), and pGESS-Km(II)) comprising the antibiotic resistance gene as the reporter were used to perform quantitative antibiotic resistance analysis. A single colony of E. coli JM109(DE3) containing each genetic circuit comprising chloramphenicol, tetracycline or kanamycin resistance gene as a reporter was inoculated into liquid medium containing 50 μg/ml of ampicillin and was cultured with shaking overnight at 37° C. The pre-culture was 10^6-fold diluted, and 100 μl of the dilution was plated on each of selective media and cultured overnight at 37° C. for 3 days. The number of colonies produced on the solid medium was counted, thereby performing the resistance test. 50 μg/ml of ampicillin and various concentrations (0, 10, 20 and 30 μg/ml) of each of selective antibiotics (chloramphenicol, tetracycline and kanamycin resistance) were added to each selective medium. Also, a transcriptional activator, that is, phenol, was added at a concentration of 1-1000 μM.

[6] = test system: genetic circuit pGESS-Tc(II); settings: phenol 1-1000 μM
Method: as §1

[7] = test system: genetic circuit pGESS-Cm(II)
Method: as §1

[8] = test system: genetic circuit pGESS-EGFP (III), mutant dmpR (E135K); assay type: cell-based, E. coli
Method: The colony introduced with the pGESS-EGFP (II) or pGESS-EGFP (III) genetic circuit was inoculated into LB medium and was cultured with shaking at 37° C. Next day, the culture was inoculated into LB medium to a concentration of 1% (v/v) and was cultured with shaking at 37° C. When the cell growth (OD600/ml) reached about 2.5, the cultured cells were recovered and subjected to activation of the genetic circuit. For activation of the genetic circuit, the recovered bacterial cells were washed once with M9 medium, after which they were suspended in M9 (acetate) media containing various concentrations of phenol and were cultured with shaking. Each medium was supplemented with 50 μg/ml of ampicillin as a selection marker. The bacterial cell growth was predicted by measuring absorbance (OD600) using a UV/VIS spectrometer (Ultrospec 3000, Pharmacia Biotech, Sweden), and the fluorescence intensity was measured using a fluorescence plate reader (Multi-label reader, PerkinElmer, USA).
Next, the measurement of sensitivities to 2-nitrophenol and 4-nitrophenol was performed. The measurement was performed in the same manner as above, and various concentrations of 2-nitrophenol and 4-nitrophenol in addition to phenol were added and allowed to react.

[9] = target: T1, C. freundii tyrosine-phenol lyase (TPL) (Citrobacter freundii, UniProt P31013); test: sensing of tyrosine-phenol lyase activity with pGESS-EGFP (I); assay type: cell-based; settings: 1 mM tyrosine, 10 μM PLP, 30° C. 20 hours
T1 construct: expressed in transfected cells; host or cells: E. coli DH5α containing pGESS-EGFP (I), plasmid pEC-TPL
T1 sequence (P31013 whole entry): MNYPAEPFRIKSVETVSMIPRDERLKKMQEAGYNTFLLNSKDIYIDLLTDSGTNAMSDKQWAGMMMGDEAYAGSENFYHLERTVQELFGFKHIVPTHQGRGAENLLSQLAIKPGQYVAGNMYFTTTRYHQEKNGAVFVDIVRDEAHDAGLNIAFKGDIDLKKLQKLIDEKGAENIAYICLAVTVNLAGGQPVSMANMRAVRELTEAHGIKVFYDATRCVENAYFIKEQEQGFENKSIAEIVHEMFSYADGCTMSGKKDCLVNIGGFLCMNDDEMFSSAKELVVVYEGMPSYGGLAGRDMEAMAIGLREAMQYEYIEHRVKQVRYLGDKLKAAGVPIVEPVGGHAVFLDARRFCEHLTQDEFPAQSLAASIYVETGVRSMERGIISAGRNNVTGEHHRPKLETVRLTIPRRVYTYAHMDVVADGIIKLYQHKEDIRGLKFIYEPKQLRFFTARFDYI
From the text: The GESS genetic circuit of the present invention can also be used to sense a reaction (phenol-lyase) of liberating phenol from substrates (Ph-C—(R)) comprising carbon coupled to phenol. In the present invention, whether the GESS genetic circuit senses the activity of TPL (enzyme degrading tyrosine into phenol, pyruvic acid and ammonia) was examined in order to verify the effectiveness of TPL. Specifically, C. freundii TPL gene was cloned into pEC11a (obtained by replacing the on of pET11a(+) with ACYC ori) to prepare pEC-TPL which was then introduced into E. coli DH5α containing pGESS-EGFP (I).

[10] = test system: Pseudomonas sp. methyl parathion hydrolase (MPH); test: sensing of methyl parathion hydrolase activity with pGESS-EGFP (III); assay type: cell-based; settings: 0.1 mM substrate, GFP emission at 510 nm
Method: The cells were lysed, and the supernatant was analyzed with a fluorescence spectrometer (Varian, Australia), thereby examining whether the emission wavelength of GFP was detected at 510 nm.

[11] = enzymatic properties of novel alkaline phosphatase (pNPP hydrolysis, absorbance at 405 nm); assay type: biochemical; settings: 15 minutes, at 80° C. or below
Method: The optimum pH and temperature, thermal stability and substrate specificity of the selected alkaline phosphatase and the effect thereof on metal ions were examined. An enzymatic reaction was performed in the following manner. The enzymatic reaction was performed using a mixture of 50 mM diethanolamine, DEA (pH 9.0) buffer, 0.5 mM para-nitrophenylphosphate (pNPP) and the enzyme at 37° C. for 5 minutes. The same amount of 1M NaOH was added to stop the enzymatic reaction, and the amount of nitrophenol produced by the enzymatic reaction was measured. the measurement was performed by measuring the absorbance at 405 nm using a fluorescence plate reader (Victor5, Perkin-Elmer, USA). 1 unit was defined as the amount of enzyme that can produce 1 μmol of para-nitrophenol per minute at 37° C.
In order to examine the optimum pH of the novel alkaline phosphatase, the activities thereof at a pH of 7.0 to 10.5 were compared. At a pH of 7.0 to 8.5, 50 mM Tris-HCl buffer was used, and at a pH of 7.5 to 10.5, 50 mM DEA buffer was used.
In addition, the activities of the enzyme at various temperatures were compared. […] (see FIG. 25B). In addition, in order to examine the thermal inactivation of the enzyme, the enzyme was allowed to stand at various temperatures for 15 minutes, and then the remaining enzymatic activity was measured. […]

## Oc1ccccc1 [phenol]
[1]
  concentration from which fluorescence started to be sensed: 1 µM
[2]
  phenol concentration at which colony fluorescence was observed: more than 1 μM
[3]; 2-step activity analysis
  increase of reaction value: about 5 times
  sensitivity relative to the previous sensitivity: about 10 times
[3]; 2-step activity analysis, M9 (acetate)
  concentration range of phenol which could be quantitatively analyzed: 1 to 10 µM
[3]; M9 (acetate), 30° C. 16 hours
  phenol concentration that could be sensed by 2-step activity analysis: at least 1 μM
[4]; LB liquid medium, 30° C. 20 hours, fluorescence spectrometer
  phenol concentration at which a clear fluorescent signal was observed: ≥ 10 µM
[4]; pGESS-EGFP(I)
  phenol concentration range in which the genetic circuit is quantitatively activated: 1 to 1000 µM
[5]
  phenol-dependent kanamycin resistance (colony formation): the formation of colonies was not sensed
[6]
  phenol-dependent tetracycline resistance (colony formation): quantitative results similar to those in the case of chloramphenicol
[7]; phenol concentration 100 μM
  resistance to chloramphenicol: 40 µg/mL
[7]; phenol concentration 1 mM
  resistance to chloramphenicol: 50 µg/mL
[7]; phenol concentration of 10 μM
  resistance to chloramphenicol: ≤ 20 µg/mL
[8]; mutant dmpR vs wild dmpR (pGESS-EGFP (II))
  sensitivity relative to wild dmpR: about 10 times
[8]; pGESS-EGFP (III)
  relative sensitivity among phenol, 4-nitrophenol and 2-nitrophenol: highest
[8]; pGESS-EGFP (III), mutant dmpR, M9 (acetate)
  concentration range which could be quantitatively sensed: 0.1 to 10 µM

## N[C@@H](Cc1ccc(O)cc1)C(=O)O [tyrosine]
[9]
  intensity of fluorescence in the cell lysis due to TPL activity: significantly increased

## COP(=S)(OC)Oc1ccc([N+](=O)[O-])cc1 [methyl parathion]
[10]
  fluorescence in the presence of MPH: strong fluorescence was observed

## alkaline phosphatase (BAP) from E. coli: alkaline phosphatase (BAP) from E. coli
[11]
  thermal inactivation: not inactivated
